Experimental data reported in publication PMC3230241 (Nature biotechnology, 2011).

Target: CHK2 (Homo sapiens, UniProt O96017)
Assay: HotSpot radiometric kinase assay, CHK2
Type: biochemical
Conditions: compound 0.5 μM, 10 μM ATP; Fig. 4b

CHK2, sequence (O96017 whole entry): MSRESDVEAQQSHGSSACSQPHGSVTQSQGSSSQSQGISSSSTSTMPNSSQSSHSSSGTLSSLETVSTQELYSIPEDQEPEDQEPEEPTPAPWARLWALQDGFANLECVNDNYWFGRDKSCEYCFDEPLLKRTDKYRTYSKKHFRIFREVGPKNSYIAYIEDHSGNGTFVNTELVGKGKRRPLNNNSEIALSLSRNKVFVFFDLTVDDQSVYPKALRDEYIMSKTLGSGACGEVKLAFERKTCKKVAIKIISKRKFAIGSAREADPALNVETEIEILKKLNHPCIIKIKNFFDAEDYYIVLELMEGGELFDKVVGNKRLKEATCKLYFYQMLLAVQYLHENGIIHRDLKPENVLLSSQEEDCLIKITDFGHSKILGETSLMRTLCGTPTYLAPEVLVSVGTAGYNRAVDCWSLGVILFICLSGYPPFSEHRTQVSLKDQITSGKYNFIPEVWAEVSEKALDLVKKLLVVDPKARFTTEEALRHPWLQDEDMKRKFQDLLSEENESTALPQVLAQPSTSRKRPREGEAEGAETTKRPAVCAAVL

`COc1cc2ncnc(Nc3ccc(OCc4ccccc4)cc3)c2cc1OC` [EGFR/ErbB-2 Inhibitor, 4-(4-benzyloxyanilino)-6,7-dimethoxyquinazoline] was tested. Which “inhibition of CHK2” value did it give?
Its value is “potent inhibition”.
